Molecular target: PD-1/PD-L1 (Homo sapiens (Human), UniProt Q9NZQ7)
Experiment: PD-1/PD-L1 Homogenous Time-Resolved Fluorescence (HTRF) binding assay
Conditions: PD-1-Ig (20 nM final)/PD-L1-His (10 nM final) binding assay
From the text: The ability of the compounds of the invention to bind to PD-L1 was investigated using a PD-1/PD-L1 Homogenous Time-Resolved Fluorescence (HTRF) binding assay.
The interaction of PD-1 and PD-L1 can be assessed using soluble, purified preparations of the extracellular domains of the two proteins. The PD-1 and PD-L1 protein extracellular domains were expressed as fusion proteins with detection tags, for PD-1, the tag was the Fc portion of Immunoglobulin (PD-1-Ig) and for PD-L1 it was the 6 histidine motif (PD-L1-His). All binding studies were performed in an HTRF assay buffer consisting of dPBS supplemented with 0.1% […] bovine serum albumin and 0.05% (v/v) Tween-20. For the h/PD-L1-His binding assay, inhibitors were pre-incubated with PD-L1-His (10 nM final) for 15m in 4 μl of assay buffer, followed by addition of PD-1-Ig (20 nM final) in 1 μl of assay buffer and further incubation for 15 m. HTRF detection was achieved using europium crypate-labeled anti-Ig (1 nM final) and allophycocyanin (APC) labeled anti-His (20 nM final). Antibodies were diluted in HTRF detection buffer and 5 μl was dispensed on top of the binding reaction. The reaction mixture was allowed to equilibrate for 30 minutes and the resulting signal (665 nm/620 nm ratio) was obtained using an EnVision fluorometer. Additional binding assays were established between the human proteins PD-1-Ig/PD-L2-His (20 & 5 nM, respectively) and CD80-His/PD-L1-Ig (100 & 10 nM, respectively).
Recombinant Proteins: Human PD-1 (25-167) with a C-terminal human Fc domain of immunoglobulin G (Ig) epitope tag [hPD-1 (25-167)-3S-IG] and human PD-L1 (18-239) with a C-terminal His epitope tag [hPD-L1(18-239)-TVMV-His] were expressed in HEK293T cells and purified sequentially by ProteinA affinity chromatography and size exclusion chromatography. Human PD-L2-His and CD80-His was obtained through commercial sources.
Homogenous Time-Resolved Fluorescence (HTRF) Assays of Binding of Soluble PD-1 to Soluble PD-L1. Soluble PD-1 and soluble PD-L1 refers to proteins with carboxyl-end truncations that remove the transmembrane-spanning regions and are fused to heterologous sequences, specifically the Fc portion of the human immunoglobuling G sequence (Ig) or the hexahistidine epitope tag (His). All binding studies were performed in an HTRF assay buffer consisting of dPBS supplemented with 0.1% (w/v) bovine serum albumin and 0.05% (v/v) Tween-20. For the PD-1-Ig/PD-L1-His binding assay, inhibitors were pre-incubated with PD-L1-His (10 nM final) for 15m in 4 μl of assay buffer, followed by addition of PD-1-Ig (20 nM final) in 1 μl of assay buffer and further incubation for 15 m. PD-L1 fusion proteins from either human, cynomologous macaques, mouse, or other species were used. HTRF detection was achieved using europium crypate-labeled anti-Ig monoclonal antibody (1 nM final) and allophycocyanin (APC) labeled anti-His monoclonal antibody (20 nM final). Antibodies were diluted in HTRF detection buffer and 5 μl was dispensed on top of binding reaction. The reaction was allowed to equilibrate for 30 minutes and signal (665 nm/620 nm ratio) was obtained using an EnVision fluorometer. Additional binding assays were established between PD-1-Ig/PD-L2-His (20 and 5 nM, respectively), CD80-His/PD-L1-Ig (100 and 10 nM, respectively) and CD80-His/CTLA4-Ig (10 and 5 nM, respectively).
Recombinant Proteins. Carboxyl-truncated human PD-1 (amino acids 25-167) with a C-terminal human Ig epitope tag [hPD-1 (25-167)-3S-IG] and human PD-L1 (amino acids 18-239) with a C-terminal His epitope tag [hPD-L1(19-239)-tobacco vein mottling virus protease cleavage site (TVMV)-His] were expressed in HEK293T cells and purified sequentially by recombinant Protein A affinity chromatography and size exclusion chromatography. Human PD-L2-His (Sino Biologicals), CD80-His (Sino Biologicals), CTLA4-Ig (RnD Systems) were all obtained through commercial sources.

Chain of PD-1/PD-L1 (Q9NZQ7 18-239): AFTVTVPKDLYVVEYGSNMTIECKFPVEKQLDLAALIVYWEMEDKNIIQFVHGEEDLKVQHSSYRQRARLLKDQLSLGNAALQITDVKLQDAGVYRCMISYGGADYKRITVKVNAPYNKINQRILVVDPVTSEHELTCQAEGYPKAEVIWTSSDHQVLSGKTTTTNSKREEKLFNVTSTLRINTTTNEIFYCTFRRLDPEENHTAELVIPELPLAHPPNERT

Structure (SMILES) | IC50
Cc1c(COc2cc(OCCCCN3CC[C@@H](O)C3)c(CN[C@](C)(CO)C(=O)O)cc2Cl)cccc1-c1ccc2c(c1)OCCO2 [Example 1026, (R)-2-((5-Chloro-4-((3-(2,3-dihydrobenzo[b][1,4]dioxin-6-yl)-2-methylbenzyl)oxy)-2-(4-((R)-3-hydroxypyrrolidin-1-yl)butoxy)benzyl)amino)-3-hydroxy-2-methylpropanoic acid] | 2.2 nM
Cc1c(COc2cc(OCCCCN3CC[C@@H](O)C3)c(CNC(C)(CO)CO)cc2Cl)cccc1-c1ccc2c(c1)OCCO2 [Example 1027, (R)-2-((5-Chloro-4-((3-(2,3-dihydrobenzo[b][1,4]dioxin-6-yl)-2-methylbenzyl)oxy)-2-(4-(3-hydroxypyrrolidin-1-yl)butoxy)benzyl)amino)-2-methylpropane-1,3-diol] | 4.1 nM
Cc1c(COc2cc(OCCCC(F)(F)F)c(CN3CCCC[C@H]3C(=O)O)cc2Cl)cccc1-c1ccc2c(c1)OCCO2 [Example 1028, (S)-1-(5-Chloro-4-((3-(2,3-dihydrobenzo[b][1,4]dioxin-6-yl)-2-methylbenzyl)oxy)-2-(4,4,4-trifluorobutoxy)benzyl)piperidine-2-carboxylic acid] | 1.8 nM
Cc1c(COc2cc(OCCCC(F)(F)F)c(CN[C@](C)(CO)C(=O)O)cc2Cl)cccc1-c1ccc2c(c1)OCCO2 [Example 1029, (R)-2-((5-Chloro-4-((3-(2,3-dihydrobenzo[b][1,4]dioxin-6-yl)-2-methylbenzyl)oxy)-2-(4,4,4-trifluorobutoxy)benzyl)amino)-3-hydroxy-2-methylpropanoic acid] | 1.2 nM
Cc1c(COc2cc(OCCCC(F)(F)F)c(CNC(C)(CO)CO)cc2Cl)cccc1-c1ccc2c(c1)OCCO2 [Example 1030, 2-((5-Chloro-4-((3-(2,3-dihydrobenzo[b][1,4]dioxin-6-yl)-2-methylbenzyl)oxy)-2-(4,4,4-trifluorobutoxy)benzyl)amino)-2-methylpropane-1,3-diol] | 6.5 nM
Cc1c(COc2cc(OC[C@H](C)CO)c(CN3CCCC[C@H]3C(=O)O)cc2Cl)cccc1-c1ccc2c(c1)OCCO2 [Example 1031, (S)-1-(5-Chloro-4-((3-(2,3-dihydrobenzo[b][1,4]dioxin-6-yl)-2-methylbenzyl)oxy)-2-((R)-3-hydroxy-2-methylpropoxy)benzyl)piperidine-2-carboxylic acid] | 14.7 nM
Cc1c(COc2cc(OC[C@@H](C)CO)c(CNC(C)(CO)CO)cc2Cl)cccc1-c1ccc2c(c1)OCCO2 [Example 1036, (S)-2-((5-Chloro-4-((3-(2,3-dihydrobenzo[b][1,4]dioxin-6-yl)-2-methylbenzyl)oxy)-2-(3-hydroxy-2-methylpropoxy)benzyl)amino)-2-methylpropane-1,3-diol] | 4.6 nM
Cc1c(COc2cc(OCCN3CCOCC3)c(CN3CCCC[C@H]3C(=O)O)cc2Cl)cccc1-c1ccc2c(c1)OCCO2 [Example 1038, (S)-1-(5-Chloro-4-((3-(2,3-dihydrobenzo[b][1,4]dioxin-6-yl)-2-methylbenzyl)oxy)-2-(2-morpholinoethoxy)benzyl)piperidine-2-carboxylic acid] | 5.7 nM
Cc1c(COc2cc(OCC3CCCCC3)c(CN3CCCC[C@H]3C(=O)O)cc2Cl)cccc1-c1ccc2c(c1)OCCO2 [Example 1040, (S)-1-(5-Chloro-2-(cyclohexylmethoxy)-4-((3-(2,3-dihydrobenzo[b][1,4]dioxin-6-yl)-2-methylbenzyl)oxy)benzyl)piperidine-2-carboxylic acid] | 164 nM
Cc1c(COc2cc(OCC3CCCCC3)c(CNC(C)(CO)CO)cc2Cl)cccc1-c1ccc2c(c1)OCCO2 [Example 1041, 2-((5-Chloro-2-(cyclohexylmethoxy)-4-((3-(2,3-dihydrobenzo[b][1,4]dioxin-6-yl)-2-methylbenzyl)oxy)benzyl)amino)-2-methylpropane-1,3-diol] | 50.5 nM

Second part, the compound after the results:

IC50 | Structure (SMILES)
4.4 nM | Cc1c(COc2cc(OC[C@H](C)CO)c(CN[C@](C)(CO)C(=O)O)cc2Cl)cccc1-c1ccc2c(c1)OCCO2 [Example 1032, (R)-2-((5-Chloro-4-((3-(2,3-dihydrobenzo[b][1,4]dioxin-6-yl)-2-methylbenzyl)oxy)-2-((R)-3-hydroxy-2-methylpropoxy)benzyl)amino)-3-hydroxy-2-methylpropanoic acid]
3.9 nM | Cc1c(COc2cc(OC[C@H](C)CO)c(CNC(C)(CO)CO)cc2Cl)cccc1-c1ccc2c(c1)OCCO2 [Example 1033, (R)-2-((5-Chloro-4-((3-(2,3-dihydrobenzo[b][1,4]dioxin-6-yl)-2-methylbenzyl)oxy)-2-(3-hydroxy-2-methylpropoxy)benzyl)amino)-2-methylpropane-1,3-diol]
3.9 nM | Cc1c(COc2cc(OC[C@@H](C)CO)c(CN3CCCC[C@H]3C(=O)O)cc2Cl)cccc1-c1ccc2c(c1)OCCO2 [Example 1034, (S)-1-(5-chloro-4-((3-(2,3-dihydrobenzo[b][1,4]dioxin-6-yl)-2-methylbenzyl)oxy)-2-((S)-3-hydroxy-2-methylpropoxy)benzyl)piperidine-2-carboxylic acid]
3.4 nM | Cc1c(COc2cc(OC[C@@H](C)CO)c(CN[C@](C)(CO)C(=O)O)cc2Cl)cccc1-c1ccc2c(c1)OCCO2 [Example 1035, (R)-2-((5-chloro-4-((3-(2,3-dihydrobenzo[b][1,4]dioxin-6-yl)-2-methylbenzyl)oxy)-2-((S)-3-hydroxy-2-methylpropoxy)benzyl)amino)-3-hydroxy-2-methylpropanoic acid]
1.8 nM | Cc1c(COc2cc(OCCN3CCOCC3)c(CN[C@](C)(CO)C(=O)O)cc2Cl)cccc1-c1ccc2c(c1)OCCO2 [Example 1037, (R)-2-((5-Chloro-4-((3-(2,3-dihydrobenzo[b][1,4]dioxin-6-yl)-2-methylbenzyl)oxy)-2-(2-morpholinoethoxy)benzyl)amino)-3-hydroxy-2-methylpropanoic acid]
2.3 nM | Cc1c(COc2cc(OCCN3CCOCC3)c(CNC(C)(CO)CO)cc2Cl)cccc1-c1ccc2c(c1)OCCO2 [Example 1039, 2-((5-Chloro-4-((3-(2,3-dihydrobenzo[b][1,4]dioxin-6-yl)-2-methylbenzyl)oxy)-2-(2-morpholinoethoxy)benzyl)amino)-2-methylpropane-1,3-diol]
0.6 nM | Cc1c(COc2cc(OCCN3CCCCC3)c(CN3CCCC[C@H]3C(=O)O)cc2Cl)cccc1-c1ccc2c(c1)OCCO2 [Example 1042, (S)-1-(5-Chloro-4-((3-(2,3-dihydrobenzo[b][1,4]dioxin-6-yl)-2-methylbenzyl)oxy)-2-(2-(piperidin-1-yl)ethoxy)benzyl)piperidine-2-carboxylic acid]
0.4 nM | Cc1c(COc2cc(OCCN3CCCCC3)c(CN[C@](C)(CO)C(=O)O)cc2Cl)cccc1-c1ccc2c(c1)OCCO2 [Example 1043, (R)-2-((5-Chloro-4-((3-(2,3-dihydrobenzo[b][1,4]dioxin-6-yl)-2-methylbenzyl)oxy)-2-(2-(piperidin-1-yl)ethoxy)benzyl)amino)-3-hydroxy-2-methylpropanoic acid]
2.1 nM | Cc1c(COc2cc(OCCN3CCCCC3)c(CNC(C)(CO)CO)cc2Cl)cccc1-c1ccc2c(c1)OCCO2 [Example 1044, 2-((5-Chloro-4-((3-(2,3-dihydrobenzo[b][1,4]dioxin-6-yl)-2-methylbenzyl)oxy)-2-(2-(piperidin-1-yl)ethoxy)benzyl)amino)-2-methylpropane-1,3-diol]

Source: patent US20250230153A1, “2,3-DIHYDROBENZO[B][1,4]DIOXIN-6-YL CONTAINING COMPOUNDS USEFUL AS IMMUNOMODULATORS” (BRISTOL-MYERS SQUIBB COMPANY, priority 2021, published 2025)
